Assay results from US6906065B2, “4-Amino-5-cyano-2-anilino-pyrimidine derivatives and their use as inhibitors of cell-cycle kinases” (AstraZeneca AB, priority 2000, dated 2005).

Target: T1, CDK2/Cyclin E (Homo sapiens, UniProt P24941)
T1 construct: The open reading frames of CDK2 and Cyclin E were isolated by reverse transcriptase-PCR; made in house; host or cells: Sf21 (Spodoptera frugiperda) insect cells, baculovirus co-infection, vector pVL1393
Assay: in vitro kinase assay (Scintillation Proximity Assay), incorporation of [γ-33-P]-ATP into GST-Rb
Assay type: biochemical
Settings: CDK2/Cyclin E partially-purified enzyme, GST-Rb substrate, 0.2 μM ATP, 60 minutes at room temperature; read-out: CDK2 inhibitory activity IC50
Description: The compounds were tested in an in vitro kinase assay in 96 well format using Scintillation Proximity Assay (SPA—obtained from Amersham) for measuring incorporation of [γ-33-P]-Adenosine Triphosphate into a test substrate (GST-Retinoblastoma protein; GST-Rb). In each well was placed the compound to be tested (diluted in DMSO and water to correct concentrations) and in control wells either roscovitine as an inhibitor control or DMSO as a positive control. […]
The plates were sealed with Topseal-S plate sealers, left for two hours then spun at 2500 rpm, 1124×g., for 5 minutes. The plates were read on a Topcount for 30 seconds per well. […]
E.coli paste was resuspended in 10 ml/g of NETN buffer (50 mM Tris pH 7.5, 120 mM NaCl, 1 mM EDTA, 0.5% v/v NP-40, 1 mM PMSF, 1 ug/ml leupeptin, 1 ug/ml aprotinin and 1 ug/ml pepstatin) and sonicated for 2×45 seconds per 100 ml homogenate. […] The final product was analysed by Sodium Dodeca Sulfate (SDS) PAGE (Polyacrylamide gel) using 8-16% Tris-Glycine gels (Novex, San Diego, USA).
The open reading frames of CDK2 and Cyclin E were isolated by reverse transcriptase-PCR using HeLa cell and activated T cell mRNA as a template and cloned into the insect expression vector pVL1393 (obtained from Invitrogen 1995 catalogue number: V1392-20). […]

SMILES	IC50
N#Cc1cnc(Nc2ccc(S(=O)(=O)NC3CCC3)cc2)nc1N [Example 21, 4-Amino-5-cyano-2-{4-[N-(cyclobutyl)sulphamoyl]anilino}pyrimidine]	33 nM
CCCNS(=O)(=O)c1ccc(Nc2ncc(C#N)c(N)n2)cc1 [Example 23, 4-Amino-5-cyano-2-[4-(N-propylsulphamoyl)anilino]pyrimidine]	17 nM
